Experimental data reported in publication PMC6677754, “In silico design and optimization of selective membranolytic anticancer peptides” (Scientific Reports, 2019).
Where two headings read alike, the source gives them in different places. Peptide text beside a SMILES is read from it.

Assays:
Assay type in all cases: cell-based, human
[1] = test system: OVCAR-4; assay: NCI-60 screening; details: OVCAR-4 (Ovarian); log GI50; 48 h, sulforhodamine B, 10^-4 to 10^-8 M
Description: (§1) NCI-60 screening procedure
(§2) The NCI-60 screening procedure was performed by the Developmental Therapeutics Program of the National Cancer Institute. The procedure was performed as previously described24 in 96-well microtiter plates. Each peptide was tested in a 5-concentration assay, starting at 10^-4 M and diluting 10-fold to the lowest 10^-8 M concentration. The peptides were incubated for 48 h and the cell concentration was assayed by using the sulforhodamine B assay25 and optical density measurements. The growth inhibition (GI50) value24, measures the growth inhibitory power of the drug agent. The GI50 value is the concentration of the test drug for which the condition in Eq. S1 is met, where T is the optical density of the test well after a 48-h exposure to the peptide, T0 the optical density before applying the peptide drug and C the control optical density of a well where no peptide was applied.

[2] = test system: MDA-MB-435; assay: NCI-60 screening; details: MDA-MB-435 (Melanoma); log GI50; 48 h, sulforhodamine B, 10^-4 to 10^-8 M
Description: as §1, §2

[3] = test system: K-562; assay: NCI-60 screening; details: K-562 (Leukemia); log GI50; 48 h, sulforhodamine B, 10^-4 to 10^-8 M
Description: as §1, §2

[4] = test system: MALME-3M; assay: NCI-60 screening; details: MALME-3M (Melanoma); log GI50; 48 h, sulforhodamine B, 10^-4 to 10^-8 M
Description: as §1, §2

[5] = test system: NCI-H226; assay: NCI-60 screening; details: NCI-H226 (Lung); log GI50; 48 h, sulforhodamine B, 10^-4 to 10^-8 M
Description: as §1, §2

[6] = test system: NCI-H522; assay: NCI-60 screening; details: NCI-H522 (Lung); log GI50; 48 h, sulforhodamine B, 10^-4 to 10^-8 M
Description: as §1, §2

[7] = test system: A549 lung adenocarcinoma cell line; assay: Cell viability assay (MTT); details: MTT
How it was run: (§3)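 Viability by MTT: 10^4 cells/well exposed 24 h to 2-fold peptide dilutions from 100 μM in DMEM, then 1 h with 0.5 mg mL−1 MTT; absorbance at 540 nm relative to peptide-free medium as 100% survival. EC50 from a 3-parameter log-logistic fit.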

[8] = test system: MCF7 breast adenocarcinoma cell line; assay: Cell viability assay (MTT)
How it was run: as §3

[9] = test system: Prostate cancer cell lines; assay: NCI-60 screening, average of cancer type; details: for log GI50: Table 5, Prostate, averaged over cell lines, 48 h, sulforhodamine B, 10^-4 to 10^-8 M; for Log GI (M): Table S3, Prostate, averaged activity for the cancer type, log GI50
Description: as §1, §2

[10] = test system: Colon cancer cell lines; assay: NCI-60 screening, average of cancer type; details: for log GI50: Table 5, Colon, averaged over cell lines, 48 h, sulforhodamine B, 10^-4 to 10^-8 M; for Log GI (M): Table S3, Colon, averaged activity for the cancer type, log GI50
Description: as §1, §2

[11] = test system: Leukemia cell lines; assay: NCI-60 screening, average of cancer type; details: for log GI50: Table 5, Leukemia, averaged over cell lines, 48 h, sulforhodamine B, 10^-4 to 10^-8 M; for Log GI (M): Table S3, Leukemia, averaged activity for the cancer type, log GI50
Description: as §1, §2

[12] = test system: Renal cancer cell lines; assay: NCI-60 screening, average of cancer type; details: for log GI50: Table 5, Renal, averaged over cell lines, 48 h, sulforhodamine B, 10^-4 to 10^-8 M; for Log GI (M): Table S3, Renal, averaged activity for the cancer type, log GI50
Description: as §1, §2

[13] = test system: Ovarian cancer cell lines; assay: NCI-60 screening, average of cancer type; details: for log GI50: Table 5, Ovarian, averaged over cell lines, 48 h, sulforhodamine B, 10^-4 to 10^-8 M; for Log GI (M): Table S3, Ovarian, averaged activity for the cancer type, log GI50
Description: as §1, §2

[14] = test system: Lung cancer cell lines; assay: NCI-60 screening, average of cancer type; details: for log GI50: Table 5, Lung, averaged over cell lines, 48 h, sulforhodamine B, 10^-4 to 10^-8 M; for Log GI (M): Table S3, Lung, averaged activity for the cancer type, log GI50
Description: as §1, §2

[15] = test system: Melanoma cell lines; assay: NCI-60 screening, average of cancer type; details: for log GI50: Table 5, Melanoma, averaged over cell lines, 48 h, sulforhodamine B, 10^-4 to 10^-8 M; for Log GI (M): Table S3, Melanoma, averaged activity for the cancer type, log GI50
Description: as §1, §2

[16] = test system: Breast cancer cell lines; assay: NCI-60 screening, average of cancer type; details: for log GI50: Table 5, Breast, averaged over cell lines, 48 h, sulforhodamine B, 10^-4 to 10^-8 M; for Log GI (M): Table S3, Breast, averaged activity for the cancer type, log GI50
Description: as §1, §2

[17] = test system: CNS cancer cell lines; assay: NCI-60 screening, average of cancer type; details: for log GI50: Table 5, CNS, averaged over cell lines, 48 h, sulforhodamine B, 10^-4 to 10^-8 M; for Log GI (M): Table S3, CNS, averaged activity for the cancer type, log GI50
Description: as §1, §2

## CC[C@H](C)[C@H](NC(=O)[C@H](CCCCN)NC(=O)[C@H](CCCCN)NC(=O)[C@@H](NC(=O)[C@@H](NC(=O)[C@@H](N)Cc1c[nH]cn1)[C@@H](C)CC)[C@@H](C)CC)C(=O)N[C@@H](CCCNC(=N)N)C(=O)N[C@H](C(=O)N[C@@H](Cc1c[nH]c2ccccc12)C(=O)N[C@@H](Cc1ccc(O)cc1)C(=O)N[C@@H](CCCNC(=N)N)C(=O)N[C@@H](CCCCN)C(=O)N[C@@H](C)C(=O)N[C@@H](Cc1c[nH]c2ccccc12)C(=O)N[C@@H](Cc1c[nH]cn1)C(=O)N[C@H](C(=O)N[C@@H](CC(C)C)C(=O)NCC(=O)N[C@@H](CCCCN)C(=O)N[C@H](C(N)=O)C(C)C)C(C)C)[C@@H](C)O [Off2] (H-HIIKKIRTWYRKAWHVLGKV-NH2)
[1]
  Log GI (M): -4.89 M
[2]
  Log GI (M): -5.29 M
[3]
  Log GI (M): -5.18 M
[4]
  Log GI (M): -5.64 M
[5]
  Log GI (M): -5.38 M
[6]
  Log GI (M): -4.96 M
[7]; Table S2, 24 h, mean ± sd, N = 2 independent measurements with six technical replicates each (Figs S6-S8), read-out: A549 EC50 /µM
  EC50: 17 ± 0.6 µM
[8]; Table S2, 24 h, mean ± sd, N = 2 independent measurements with six technical replicates each (Figs S6-S8)
  EC50: 10 ± 2 µM
[9]
  log GI50: −5.5 M
  Log GI (M): -5.46 M
[10]
  log GI50: −5.2 M
  Log GI (M): -5.24 M
[11]
  log GI50: −5.2 M
  Log GI (M): -5.17 M
[12]
  log GI50: −5.3 M
  Log GI (M): -5.28 M
[13]
  log GI50: −5.2 M
  Log GI (M): -5.17 M
[14]
  log GI50: −5.4 M
  Log GI (M): -5.37 M
[15]
  log GI50: −5.3 M
  Log GI (M): -5.33 M
[16]
  log GI50: −5.4 M
  Log GI (M): -5.36 M
[17]
  log GI50: −5.2 M
  Log GI (M): -5.21 M

## CC[C@H](C)[C@H](NC(=O)[C@H](CCCNC(=N)N)NC(=O)[C@H](Cc1c[nH]c2ccccc12)NC(=O)[C@@H](NC(=O)[C@H](CCCCN)NC(=O)[C@H](CCCCN)NC(=O)[C@@H](NC(=O)[C@@H](NC(=O)[C@@H](NC(=O)[C@H](CCCCN)NC(=O)[C@H](Cc1ccccc1)NC(=O)[C@H](CCCCN)NC(=O)[C@H](CCCCN)NC(=O)[C@H](Cc1ccccc1)NC(=O)[C@@H](NC(=O)[C@@H](N)CCCCN)[C@@H](C)CC)[C@@H](C)O)[C@@H](C)CC)[C@@H](C)CC)C(C)C)C(=O)N[C@@H](Cc1ccccc1)C(=O)NCC(=O)N[C@@H](CCCNC(=N)N)C(=O)N[C@@H](Cc1ccccc1)C(N)=O [AmphiArc2] (H-KIFKKFKTIIKKVWRIFGRF-NH2)
[1]
  Log GI (M): -5.67 M
[2]
  Log GI (M): -5.63 M
[3]
  Log GI (M): -5.55 M
[4]
  Log GI (M): -5.89 M
[5]
  Log GI (M): -5.59 M
[6]
  Log GI (M): -5.63 M
[7]; 10^4 cells per well, 24 h with peptide, 2-fold dilution series from 100 µM in DMEM, absorbance 540 nm, mean ± std, N = 3, read-out: A549 EC50/µM
  EC50: 9.3 ± 1.5 µM
[8]; 10^4 cells per well, 24 h with peptide, 2-fold dilution series from 100 µM in DMEM, absorbance 540 nm, mean ± std, N = 3
  EC50: 5.7 ± 0.7 µM
[9]
  log GI50: −5.7 M
  Log GI (M): -5.72 M
[10]
  log GI50: −5.6 M
  Log GI (M): -5.57 M
[11]
  log GI50: −5.5 M
  Log GI (M): -5.50 M
[12]
  log GI50: −5.7 M
  Log GI (M): -5.67 M
[13]
  log GI50: −5.6 M
  Log GI (M): -5.60 M
[14]
  log GI50: −5.6 M
  Log GI (M): -5.65 M
[15]
  log GI50: −5.6 M
  Log GI (M): -5.64 M
[16]
  log GI50: −5.6 M
  Log GI (M): -5.65 M
[17]
  log GI50: −5.6 M
  Log GI (M): -5.63 M
